We go through three compounds from patent US20020150582A1, “Method of treating or inhibiting cellular injury or cell death” (priority 2001, published 2002).

Marks after values point to notes of the source that are not given here. Bounds are passed on as bounds.

For one series, the system named is TNF. The series is described as follows: Serum TNF (ELISA) in open chest rats undergoing myocardial ischemia. As to conditions: for serum concentration of TNF: mean ± sem. Format: in vivo, rat. The method, then:
(§1) Male Sprague-Dawley rats weighing 505±5 g were anesthetized with sodium pentobarbital (50 mg/kg I.P.). An endotracheal tube was secured in place and connected to a small-animal respirator (Harvard Apparatus, Model 683, South Natick, Mass.) set on 100 breaths/min, with a tidal volume of 2-3 mnL/breath. Body temperature was maintained using a heating pad with circulating warm water (K-model 100, Baxter Laboratories). A left thoracotomy was performed, the heart exposed and the pericardium removed. Left ventricular pressure was measured using a saline-filled polyethylene catheter attached to an angiocatheter (20 Gauge) inserted through the apex of the heart and connected to a P23 ID Statham/Gould pressure transducer. Arterial pressure was monitored via a saline-filled polyethylene catheter (PE 50) introduced into the left carotid artery. The right jugular vein was also cannulated with a polyethylene catheter (PE 50) for IV drug infusions and volume repletion (0.9% NaCl). Subcutaneous needles were positioned in the limbs for ECG recordings.
(§2) In the second test procedure, the main coronary artery of rats undergoing coronary occlusion was located and occluded close to its origin using a 5-0 suture passed underneath the vessel that could be tightened over a short section of PE tubing (PE 20) to initiate regional ischemia. Reperfusion was reinstated by removing the short segment of PE tubing.
Blood samples were collected in syringes in the absence of any anticoagulant and immediately placed in Microtainer® serum separator tubes (Becton Dickinson) and centrifuged at 2000 g for 6 minutes. The serum was removed, frozen immediately, and stored at −20° C. until the analysis could be performed. The concentration of serum TNF collected at preselected time points was determined for individual rats by enzyme-linked immunosorbent assay (ELISA), utilizing the Factor-Test-X (Genzyme Inc, Cambridge, Mass., Cat #80-3905-01) according to the manufacturer's instructions. Briefly, 100 μL of serum was diluted 1:2 in 0.1% bovine serum albumin/phosphate buffered saline and added in duplicate to a 96-well microtiter plate. A standard curve was generated by plotting the concentrations of rat TNF standards versus their absorbances. […] The detection limit of this assay was 10 pg/mL. Additionally, the manufacturer has determined that this ELISA is highly specific for rat TNF.
On the technique in general: An ELISA detects its analyte on a solid surface through an enzyme-linked reagent.

Series [1] has as its system open chest rats undergoing myocardial ischemia/reperfusion. The series is described as follows: Survival of open chest rats undergoing myocardial ischemia/reperfusion (second test procedure). Format: in vivo, rat. As to conditions: for percent survival: 3 mg/kg iv.
Series [2] shares this test system. Briefly: Determination of infarct size (TTC staining). The conditions noted are these: 3 mg/kg i.v. In kind it is in vivo, rat. As to the method:
as §2
The heart was removed and sliced in five to six coronal sections, which were immersed in 1% triphenyltetrazolium chloride (TTC) for 10-15 minutes. The heart sections were removed, blotted dry and traced onto acetate sheets. The areas of infarction were clearly demarcated by a pale appearance in the ischemic zone, and a brick red color of non-infarcted myocardium. The areas of all sections were determined by planimetric methods and infarct area was expressed as a percentage of the left ventricle.

Series [3] concerns open chest rats in the absence of myocardial ischemia. The series is described as follows: Hemodynamic parameters in open chest rats in the absence of myocardial ischemia (first test procedure). In kind it is in vivo, rat. The conditions noted are these: for +dP/dt / Heart Rate / LVPdev / Mean BP: percent change from pre-drug baseline 15 minutes after drug administration. As to the method:
as §1, with “recordings. […]” for “recordings.”

Another series relates to Ca+2 current (ICa-L). Briefly: L-type Ca2+ current recording in isolated ventricular myocytes (patch clamp). Format: cell-based, cat. As to the method:
The latter process was performed three times.
Patch-clamp current and voltage recordings were made with the ruptured patch whole-cell configuration at 36-37° C. (14). For studies on L-type Ca^2+ currents, cells were bathed with modified Tyrode's containing (in mM): 157 TEA-Cl, 5 CaCl2, 0.5 MgCl2, and 10 HEPES. Electrode internal solution contained (in mM): 10 L-Glutamic Acid, 20 CsCl, 10 EGTA, 1 MgCl2, 1 CaCl2, 20 HEPES, and 5 ATP-Mg2; pH adjusted with CsOH. In all of the studies, electrode resistance was measured to be 2-3.5 MΩ. The reference zero potential was adjusted in the bath before forming seals. Recordings were performed with an Axon Instruments 200B amplifier (Axon Instruments, Culver City, Calif. USA) interfacing a DigiData 1200 DA/AD acquisition system. Ionic currents were evoked by depolarizing voltage step (1 sec-long) from −30 to +60 mV, in 10-mV increments, from a holding potential of −40 mV delivered at the frequency of 1 Hz. Action potentials were elicited at a frequency of 1 Hz by injection of brief depolarizing current pulses. Software used in data acquisition and analysis was pClamp v.6.04 and Origin v 5.0 (Microcal Software, Northampton, Mass.).
A general note: In patch-clamp work, channel activity is measured electrically.

For series [4], the system named is isolated feline ventricular myocytes. The conditions noted are these: 25 μM, soon after exposure.
Series [5] has as its system Adult human kidney proximal tubular (HK-2) cells. The conditions noted are these: HK-2 cells cultured for 0-20 hr; necrotic form of cell death; cited from earlier work.
[6] abbreviates: 0.1 mg/kg iv (first dose), mean ± sem.
The mark [7] stands for this setting: 0.3 mg/kg iv (second dose, after 0.1 mg/kg iv).
Setting [8] is: 1.0 mg/kg iv (second dose, after 0.3 mg/kg iv).
Setting [9] is: following infusion (0.1+0.3 mg/kg).

Take Etanercept: the “serum concentration of TNF” value came to 2299 ± 357 pg/mL in the series with TNF (0 min (end of ischemia)); 2057 ± 349 pg/mL in the series on TNF (30 min reperfusion); 1592 ± 258 pg/mL in the series on TNF (60 min reperfusion); 1108 ± 279 pg/mL in the series with TNF (90 min reperfusion); 721 ± 209 pg/mL in the series with TNF (120 min reperfusion); 580 ± 193 pg/mL with TNF (150 min reperfusion). In addition, in the series on TNF (−30 min (baseline)), the “serum concentration of TNF” value came out at 0 ± 0 pg/mL. For the same compound, the “effect on TNFα spike in concentration in response to vascular occlusion” value with TNF (at 0 minutes) is given as “significantly reduced”. Also, the “mortality resulting from myocardial ischemia/reperfusion” value in series [1] (3 mg/kg i.v. administered immediately before occlusion) is “significantly reduced mortality”. Also, in series [1] (3 mg/kg i.v., t=90 minutes of reperfusion), the rats dead is 1 out of 9. Also, the percent survival in series [1] (0 min (end of ischemia)) was 100%; in series [1] (30 min reperfusion), 100%; in series [1] (60 min reperfusion) it was 100%; in series [1] (90 min reperfusion) it was 89%; in series [1] (120 min reperfusion), 89* percent; in series [1] (150 min reperfusion) it was 88* percent. The percent survival in series [1] (−30 min (baseline)) is recorded as 100%. For the same compound, the “Infarct size, expressed as a percentage of the left ventricle” value in series [2] amounted to 24±3%.
Sphingomyelin: in series [3] (setting [6]), the “+dP/dt” value was 1 ± 13%, the “Heart Rate” value worked out at 7 ± 9%, the LVPdev is reported as 3 ± 11% and the “Mean BP” value is on record as −3 ± 17%. In series [3] (setting [7]), the “+dP/dt” value is 6 ± 15%, the “Heart Rate” value is listed as 8 ± 10%, the LVPdev is recorded as 4 ± 12% and the “Mean BP” value was 2 ± 2%.
Take `CCCCCCCCCCCCC/C=C/[C@@H](O)[C@@H](N)CO` [Sphingosine]: in series [3] (0.3 mg/kg iv (first dose)), the “+dP/dt” value is on record as −33 ± 12%, the “Heart Rate” value was −4 ± 4% and the “Mean BP” value was −24 ± 12%. In addition, in series [3] (setting [8]), the “+dP/dt” value is on record as −32 ± 18%, the “Heart Rate” value was −18 ± 1%, the LVPdev was −24 ± 14% and the “Mean BP” value was −17 ± 19%. Moreover, in series [3] (setting [9]), the “+dP/dt reduced from baseline” value was determined as 33±12% and the “LVP depressed from baseline” value came to 24±8%. The “block of ICa-L” value in the series with Ca+2 current (ICa-L) (2.5 μM) was determined as 17±7%. Moreover, the “block of ICa-L” value with Ca+2 current (ICa-L) (25 μM) is 75±4%. For the same compound, the “myocardial cell death (morphology, lack of viability)” value in series [4] is “lead to myocardial cell death”. Besides, the “concentration inducing rapid, concentration-dependent cytotoxicity” value in series [5] is not below 10 µM.
